Source: US6908742B2, “Methods and kits for the detection of endotoxin” (priority 1996, dated 2005)

Columns and labels:
[1] = target: T1, A1 adenosine receptors in membranes from feline PAECs (Felis catus, UniProt A0ABI7XJE9); assay: Competition experiments for [3H] DPCPX in feline PAEC membranes; assay type: binding; conditions: cultured feline PAEC membranes
T1 sequence (A0ABI7XJE9 1-326): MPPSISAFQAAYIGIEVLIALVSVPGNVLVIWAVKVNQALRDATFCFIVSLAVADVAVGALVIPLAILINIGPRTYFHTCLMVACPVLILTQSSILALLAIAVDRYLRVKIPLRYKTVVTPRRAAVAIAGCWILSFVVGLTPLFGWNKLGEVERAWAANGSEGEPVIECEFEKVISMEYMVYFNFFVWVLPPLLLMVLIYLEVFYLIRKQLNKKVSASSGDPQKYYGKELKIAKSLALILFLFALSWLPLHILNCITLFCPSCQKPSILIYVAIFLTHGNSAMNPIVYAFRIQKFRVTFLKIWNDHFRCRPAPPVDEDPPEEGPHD
Protocol: (§1) Feline PAECs were grown to confluency in […] culture plates. The confluent cells were washed twice with KSP buffer (10 mM KH2P04, 50 mM sucrose). The cells were scraped and suspended in KSP buffer at a concentration of 1×10^6 cells/ml in two conical centrifuge tubes. The tubes were centrifuged at 1000 g×2 minutes and the buffer discarded. The cells from one tube were then suspended in deoxygenated buffer (bubbled with N2 gas for 10 minutes) and bubbled with N2 gas for 30 seconds to insure hypoxic conditions. These cells were then incubated for 2 hours in this hypoxic buffer. Cells from the other tube were suspended in normal KSP buffer and incubated at 37° C. for 2 hours. At the end of incubation, cells were homogenized immediately for membrane preparation.
For membrane preparation, the cells were homogenized by sonication and centrifuged at 1000× g for 10 minutes. The supernatant was centrifuged again at 30,000× g for 30 minutes. […]
Radioligand binding data are analyzed with the use of Graph Pad Prism by nonlinear regression analysis equipped with a statistical package. Data are expressed as mean±SEM. Hill plots and Schild plots are determined for each species of LPS in competition experiments and are used as standard curves for the determinations of the concentration of endotoxin in samples with unknown concentrations of endotoxin.

[2] = target: T2, A1 adenosine receptors in sheep brain membranes (Ovis aries, UniProt A0ACI6R3B7); assay: Saturation experiments with [3H] DPCPX or [3H] CCPA in sheep brain membranes; assay type: binding
T2 sequence (A0ACI6R3B7 1-326): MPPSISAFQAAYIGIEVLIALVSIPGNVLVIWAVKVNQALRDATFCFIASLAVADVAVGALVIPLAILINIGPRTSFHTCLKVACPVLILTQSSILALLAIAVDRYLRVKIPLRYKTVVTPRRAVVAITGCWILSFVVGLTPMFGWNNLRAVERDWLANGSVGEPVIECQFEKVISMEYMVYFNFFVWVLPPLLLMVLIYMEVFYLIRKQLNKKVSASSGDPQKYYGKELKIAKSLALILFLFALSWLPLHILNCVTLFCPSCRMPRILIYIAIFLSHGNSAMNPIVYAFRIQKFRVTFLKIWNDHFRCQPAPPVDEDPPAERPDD
Protocol: (§2) Frozen sheep brain (Pel Freeze, Rodgers, Ark.) or hamster brain (Harlan Bioproducts, Indianapolis, Ind.) was thawed and homogenized in 10 volumes of cold (4° C.), 0.32 M sucrose. The homogenate was centrifuged at 1,000× g for 10 minutes to remove the nuclear fraction. The supernatant was centrifuged at 30,000× g for 30 minutes. The resulting pellet was resuspended in 10 ml water and left on ice for 30 minutes to obtain synaptosomal membranes. The suspension was then centrifuged at 48,000× g for 10 minutes and the membranes resuspended in 50 mM Tris-HCl (pH 7.4) at a concentration of 8 mg protein/ml, frozen in liquid nitrogen, and stored at −20° C. until binding assay.
(§3) Binding of [^3H] DPCPX or [^3H] CCPA to membranes was carried out in an assay volume of 500 μl Tris-HCl, pH 7.4, MgCl2 (10 mM) (for membranes from feline PAECs only) containing [^3H] DPCPX or [^3H] CCPA (0.01 to 4 nM). Nonspecific binding of [^3H] DPCPX or [^3H] CCPA was determined in the presence of R-PIA (100 μM) or theophylline (1 mM), respectively. To remove endogenous adenosine, adenosine deaminase was present in all binding assays at a concentration of 0.2 U/ml. Incubations were performed for 2 hours at room temperature for sheep and hamster brain membranes and 4° C. for feline PAEC membranes. Incubations were terminated by rapid removal of the incubation buffer by filtration through Whatman GF/B filters (Whatman Inc., Clifton, N.J.). The membrane bound radioactivity was measured by scintillation counting of the filter paper. To determine Kd, Bmax, and nonspecific binding in sheep and hamster brain and feline PAEC membranes, experiments are performed in duplicate.

[3] = target: T3, A1 adenosine receptors in hamster brain membranes (Mesocricetus auratus, UniProt A0A1U8BVR4); assay: Saturation experiments with [3H] DPCPX or [3H] CCPA in hamster brain membranes; assay type: binding
T3 sequence (A0A1U8BVR4 1-326): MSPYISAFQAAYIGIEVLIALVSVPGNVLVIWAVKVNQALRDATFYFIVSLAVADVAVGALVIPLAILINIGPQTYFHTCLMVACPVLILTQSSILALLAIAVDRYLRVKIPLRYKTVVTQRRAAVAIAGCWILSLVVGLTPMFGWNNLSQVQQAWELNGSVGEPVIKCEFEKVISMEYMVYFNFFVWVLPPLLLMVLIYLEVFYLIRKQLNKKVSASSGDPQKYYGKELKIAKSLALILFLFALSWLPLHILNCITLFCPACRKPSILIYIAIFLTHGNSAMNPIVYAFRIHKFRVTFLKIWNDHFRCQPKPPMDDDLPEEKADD
Protocol: as §2, §3

[4] = target: T1, A1 adenosine receptors in membranes from feline PAECs; assay: Saturation experiments with [3H] DPCPX in feline PAEC membranes; assay type: binding
Protocol: as §1
For membrane preparation, the cells were homogenized by sonication and centrifuged at 1000× g for 10 minutes. The supernatant was centrifuged again at 30,000× g for 30 minutes. The membrane fraction was reconstituted with Tris buffer for radioligand binding studies.
as §3

[5] = target: T4, A1 adenosine receptor (Homo sapiens, UniProt P30542); conditions: in tissues; cited from earlier work
T4 construct: host or cells: tissues (not specified)
T4 sequence (P30542 1-326): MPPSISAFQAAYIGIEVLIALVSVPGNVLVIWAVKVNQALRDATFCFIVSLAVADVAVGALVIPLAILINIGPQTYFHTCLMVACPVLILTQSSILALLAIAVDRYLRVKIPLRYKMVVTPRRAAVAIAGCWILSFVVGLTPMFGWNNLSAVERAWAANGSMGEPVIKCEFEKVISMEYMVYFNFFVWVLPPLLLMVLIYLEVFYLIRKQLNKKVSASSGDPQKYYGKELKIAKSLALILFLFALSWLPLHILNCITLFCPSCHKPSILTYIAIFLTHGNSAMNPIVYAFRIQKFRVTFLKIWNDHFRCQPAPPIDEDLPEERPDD

In the case of `Nc1nc(Nc2ccccc2)nc2c1ncn2[C@@H]1O[C@H](CO)[C@@H](O)[C@H]1O` [CV 1808, 2-phenylaminoadenosine], the “displacement of bound [3H] DPCPX” value [1] is reported as “did not displace”.

For `OC[C@H]1O[C@@H](n2cnc3c(NC4CCCC4)nc(Cl)nc32)[C@H](O)[C@@H]1O` [[^3H] CCPA, 2-chloro-N^6-cyclopentyladenosine], the “density of high affinity A1 adenosine receptors” value ([2]; sheep brain, determined using [3H] CCPA) was 1920 ± 250 fmol/mg and the “density of high affinity A1 adenosine receptors” value ([3]; hamster brain, determined using [3H] CCPA) was 1630 ± 60 fmol/mg.

For `CCCn1c(=O)c2[nH]c(C3CCCC3)nc2n(CCC)c1=O` [[^3H]-DPCPX, [^3H]-1,3-dipropyl-8-cyclopentyladenosine xanthine], the Kd ([2]; sheep brain membranes) was 0.37 nM, the Bmax ([2]; sheep brain membranes, [3H]-DPCPX saturation) was 2251 fmoles/mg protein and the Kd ([3]; hamster brain membranes) was 0.32 nM. The Bmax ([3]; hamster brain membranes, [3H]-DPCPX saturation) was 3733 fmoles/mg protein, the Bmax ([4]; hypoxia) was 1458 fmoles/mg protein and the Kd ([4]; hypoxia) was 0.26 nM. The Bmax ([4]; normoxia) was 1064 fmoles/mg protein and the Kd ([4]; normoxia) was 0.33 nM.

For `CCCn1c(=O)c2[nH]c(C3CCCC3)nc2n(CCC)c1=O` [DPCPX, 1,3-dipropyl-8-cyclopentylxanthine], the nonspecific binding [5] is given as “less than 1%”.
